The values that follow come from article PMC4049391, “Cadmium exposure and sulfate limitation reveal differences in the transcriptional control of three sulfate transporter (Sultr1;2) genes in Brassica juncea” (BMC Plant Biology, 2014).

This experiment has as its target T1, AtSultr2;1 (Arabidopsis thaliana, UniProt O04722).
T1 construct: gene SULTR2; full-length ORF from Arabidopsis root RNA in pESC-TRP (GAL10 promoter), expressed in Saccharomyces cerevisiae CP154-7A
T1 sequence (O04722 1-677): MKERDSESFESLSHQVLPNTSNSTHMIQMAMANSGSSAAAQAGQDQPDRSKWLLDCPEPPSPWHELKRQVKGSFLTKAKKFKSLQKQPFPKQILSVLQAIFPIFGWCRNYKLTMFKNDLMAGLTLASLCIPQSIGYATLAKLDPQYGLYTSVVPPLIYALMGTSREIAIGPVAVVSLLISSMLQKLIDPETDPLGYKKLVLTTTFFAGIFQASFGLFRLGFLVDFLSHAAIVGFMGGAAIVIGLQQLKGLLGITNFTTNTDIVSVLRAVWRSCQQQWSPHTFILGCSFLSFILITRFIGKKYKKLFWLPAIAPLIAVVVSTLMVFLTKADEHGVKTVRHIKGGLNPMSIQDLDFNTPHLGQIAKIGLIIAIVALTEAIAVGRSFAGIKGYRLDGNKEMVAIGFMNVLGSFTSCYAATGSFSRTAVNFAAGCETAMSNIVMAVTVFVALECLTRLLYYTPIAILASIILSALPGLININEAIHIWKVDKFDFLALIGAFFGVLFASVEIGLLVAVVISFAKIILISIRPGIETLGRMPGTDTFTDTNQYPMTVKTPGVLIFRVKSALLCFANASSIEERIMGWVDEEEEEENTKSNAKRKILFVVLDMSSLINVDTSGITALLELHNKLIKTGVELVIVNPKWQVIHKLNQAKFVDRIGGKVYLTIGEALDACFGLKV
Put plainly: growth rate of complemented yeast versus sulfate, Michaelis-Menten fit. The format is cell-based. The settings on record: growth constant as estimate of apparent Km; sulfate 0-3 mM as sole sulfur source, 28°C; yeast CP154-7A.

Consider `O=S(=O)(O)O` [sulfate], for which the kG result was “Estimation of the growth constant (kG) for sulfate”.
